# From PMC7522027 (Disease Models & Mechanisms, 2020)
# Several values for one entry are separate records, joined by “and”; a condition that tells them apart may be missing. Identical values can stand only once.
# How the values were obtained:
# [1] = tested on: zebrafish embryos; assay: zebrafish embryo assay (morphological developmental defects at 48 hpf); assay type: in vivo, zebrafish (Danio rerio); settings: for developmental defects in zebrafish embryos: broad concentration range; for effect on zebrafish embryo development: 20 µM (maximum tested concentration)
# Protocol: Zebrafish eggs obtained from family crosses of Tuebingen long fin zebrafish lines were used to assess the biological activity of all samples. The eggs were washed with fresh E3 medium and subsequently divided over 24-well plates, with ten embryos per well in 1000 µl E3 medium. Samples were added to the wells at various times as mentioned in the figures and legends. At 48 hpf, the zebrafish embryos were inspected for morphological developmental defects. Embryos displaying morphological defects were imaged using a Leica MZFLIII microscope equipped with a Leica DFC320 camera or Leica M165 FC microscope equipped with a Leica DMC5400 camera.
# [2] = tested on: zebrafish embryos; assay: in situ hybridization with krox20/myod probes in treated zebrafish embryos; assay type: in vivo, zebrafish (Danio rerio); settings: 750 nM from 6 hpf, fixed at 12 hpf
# Protocol: Embryos were treated from approximately 6 hpf until 12 hpf when they were fixed in 4% paraformaldehyde overnight. In situ hybridization was performed using krox20 and myod anti-sense RNA probes as described elsewhere ([Thisse and Thisse, 2008]).
# [3] = tested on: BMP2-induced SMAD1/5-dependent BRE-luc transcriptional reporter; assay: BMP2-induced BRE-luc transcriptional reporter assay in HepG2 cells; assay type: cell-based, human; settings: HepG2, BMP2 50 ng/ml; cercosporamide 100 nM to 10 µM, LDN-193189 200 nM
# Protocol: For luciferase transcriptional reporter assays, HepG2 cells were seeded in 9-cm plates at ∼60% confluency and transfected with polyethyleneimine (PEI). Twenty-four hours later, the transfected cells were seeded in 24-well plates at ∼60% confluency. Another 24 h later, the cells were serum starved for 6 h. Subsequently the cells were treated with compound or DMSO for 30 min. Thereafter, the cells were stimulated with BMP2 in the presence of compounds (or DMSO) for 16 h (overnight). Subsequently, the cells were washed with PBS and lysed. Luciferase activity was measured using the luciferase reporter assay system from Promega (Leiden, The Netherlands) by a Perkin Elmer luminometer Victor^3 1420. Each DNA transfection mixture was equalized with empty vector when necessary and every experiment was performed in triplicate. β-galactosidase expression construct was co-transfected and β-galactosidase was measured to normalize for differences in transfection efficiency. The BRE-luc reporter construct has been reported previously ([Korchynskyi and ten Dijke, 2002]).
# [4] = biological target: T1, caALK2 (Homo sapiens, UniProt Q04771, Q207D); assay: caALK2-induced SMAD1/5 phosphorylation in HEK 293T cells; assay type: cell-based; settings: cercosporamide 1-10 µM, LDN193189 200 nM
# T1 construct: expressed in transfected cells; host or cells: HEK 293T
# T1 sequence (Q04771 21-509 Q207D): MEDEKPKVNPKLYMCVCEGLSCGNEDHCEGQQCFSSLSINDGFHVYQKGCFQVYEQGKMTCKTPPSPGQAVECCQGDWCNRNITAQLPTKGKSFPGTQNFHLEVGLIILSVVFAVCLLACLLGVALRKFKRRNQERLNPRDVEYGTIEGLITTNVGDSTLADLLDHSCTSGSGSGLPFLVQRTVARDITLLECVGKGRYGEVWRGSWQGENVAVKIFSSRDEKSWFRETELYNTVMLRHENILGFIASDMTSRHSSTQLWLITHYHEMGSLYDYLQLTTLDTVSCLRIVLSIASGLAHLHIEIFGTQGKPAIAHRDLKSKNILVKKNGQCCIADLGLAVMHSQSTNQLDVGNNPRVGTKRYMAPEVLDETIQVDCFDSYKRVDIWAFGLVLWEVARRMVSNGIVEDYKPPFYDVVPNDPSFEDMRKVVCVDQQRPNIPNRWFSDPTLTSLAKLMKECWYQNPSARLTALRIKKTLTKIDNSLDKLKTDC
# Excerpt: (§1) HepG2 or HEK 293T cells were lysed in Laemmli sample buffer. Proteins were separated by sodium dodecyl sulfate polyacrylamide gel electrophoresis (SDS-PAGE) and transferred onto […] polyvinylidene difluoride (PVDF) membrane (IPVH00010, Merck Millipore). Membranes were blocked using 5% non-fat dry milk in Tris-buffered saline with 0.1% Tween 20 (655204, Merck Millipore) and probed with the respective primary and secondary antibodies. The signal was detected using Clarity™ Western ECL Substrate (1705060, Bio-Rad) and ChemiDoc Imaging System (17001402, Bio-Rad). The antibodies used for immunoblotting were raised against the following proteins: phospho-SMAD1/5/8 ([Persson et al., 1998]; 1:1000), SMAD1 (Cell Signaling Technology, #6944; 1:1000), GAPDH (Merck Millipore, #G8795; 1:5000) and hemagglutinin (HA; Roche, #12CA5; 1:1000).
# (§2) For experiments with the caALK type I receptor constructs, HEK 293T cells were seeded in 24-well plates at ∼90% confluency and transfected with the DNA expression constructs in the presence of PEI. Thirty hours after transfection, the cells were added to serum-starved medium and treated with compounds for 16 h (overnight). Subsequently, the cells were washed with PBS and lysed in Laemmli sample buffer. […]
# [5] = biological target: T2, caALK1 (Homo sapiens, UniProt P37023, Q201D); assay: caALK1-induced SMAD1/5 phosphorylation in HEK 293T cells; assay type: cell-based; settings: cercosporamide 1-10 µM, LDN193189 200 nM
# T2 construct: expressed in transfected cells; host or cells: HEK 293T
# T2 sequence (P37023 22-503 Q201D): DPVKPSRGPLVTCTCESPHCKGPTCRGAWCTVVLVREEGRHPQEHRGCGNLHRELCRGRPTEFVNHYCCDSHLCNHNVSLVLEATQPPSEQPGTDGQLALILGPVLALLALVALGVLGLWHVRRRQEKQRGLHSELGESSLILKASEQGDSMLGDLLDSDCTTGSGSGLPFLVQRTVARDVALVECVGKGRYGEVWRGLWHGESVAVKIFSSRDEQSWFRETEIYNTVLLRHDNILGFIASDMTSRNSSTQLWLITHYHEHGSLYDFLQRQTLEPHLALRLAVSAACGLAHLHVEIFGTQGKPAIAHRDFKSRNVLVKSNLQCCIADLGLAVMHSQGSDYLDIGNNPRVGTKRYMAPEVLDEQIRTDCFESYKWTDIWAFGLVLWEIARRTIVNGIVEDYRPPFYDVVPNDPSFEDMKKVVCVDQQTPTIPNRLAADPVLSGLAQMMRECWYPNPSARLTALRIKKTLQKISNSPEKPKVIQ
# Excerpt: as §1, §2
# [6] = tested on: caALK6; assay: caALK6-induced SMAD1/5 phosphorylation in HEK 293T cells; assay type: cell-based, human; settings: cercosporamide 1-10 µM, LDN193189 200 nM
# Excerpt: as §1, §2
# [7] = biological target: T3, caALK3 (Homo sapiens, UniProt P36894, Q233D); assay: caALK3-induced SMAD1/5 phosphorylation in HEK 293T cells; assay type: cell-based; settings: cercosporamide 1-10 µM, LDN193189 200 nM
# T3 construct: expressed in transfected cells; host or cells: HEK 293T
# T3 sequence (P36894 24-532 Q233D): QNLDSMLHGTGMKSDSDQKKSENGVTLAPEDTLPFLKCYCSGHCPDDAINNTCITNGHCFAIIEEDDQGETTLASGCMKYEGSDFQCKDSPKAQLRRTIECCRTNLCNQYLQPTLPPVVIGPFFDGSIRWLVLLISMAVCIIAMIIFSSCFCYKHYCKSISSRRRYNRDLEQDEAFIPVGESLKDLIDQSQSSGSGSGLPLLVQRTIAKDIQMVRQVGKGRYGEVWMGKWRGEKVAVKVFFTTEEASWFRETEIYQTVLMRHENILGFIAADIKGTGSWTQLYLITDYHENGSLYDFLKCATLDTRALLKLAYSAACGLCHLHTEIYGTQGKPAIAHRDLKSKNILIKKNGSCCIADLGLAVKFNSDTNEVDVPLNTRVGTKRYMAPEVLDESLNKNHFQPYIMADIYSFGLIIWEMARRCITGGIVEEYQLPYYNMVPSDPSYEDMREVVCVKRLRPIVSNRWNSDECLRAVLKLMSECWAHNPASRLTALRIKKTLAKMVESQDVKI
# Excerpt: as §1, §2
# [8] = tested on: BMP2-induced SMAD1/5 phosphorylation; assay: BMP2-induced SMAD1/5 phosphorylation in HepG2 cells (immunoblot); assay type: cell-based, human; settings: HepG2, BMP2 50 ng/ml, maximum tested concentration of 20 µM
# Protocol: For BMP stimulation, the HepG2 cells (∼50% confluency) were starved on serum-free medium for 6 h. Subsequently, prior to the addition of BMP ligands, the cells were treated with compound for 30 min. Next, the cells were stimulated with BMP2 (50 ng/ml) or BMP6 (50 ng/ml) for 45 min. The cells were then washed with PBS and lysed in Laemmli sample buffer for western blot analysis.
# as §1
smiles,measurement,setting,value
Cc1cccc(-c2nn(C(=S)Nc3ccccc3)cc2-c2ccnc3ccccc23)n1 [A83-01],developmental defects in zebrafish embryos,[1],severely curved tail and fused eyes
Cc1cccc(-c2[nH]ncc2-c2ccc3ncccc3n2)n1 [ALK5 kinase inhibitor II],developmental defects in zebrafish embryos,[1],severely curved tail and fused eyes
CC(C)Oc1ccc(-c2cnc3c(-c4ccnc5ccccc45)cnn3c2)cc1 [DMH-1],lethality,"[1]; 250 nM, treatment from 2 hpf onwards",lethal
same,embryos in which treatment is lethal,"[1]; 250 nM, treatment from 4 hpf",50%
same,phenotype,[1]; 750 nM,loss of the ventral fin
same,phenotype at 48 hpf,"[1]; DMH-1 treatment at 8 hpf (250 nM, Fig. S3)",mild defects
same,krox20 expression pattern,[2],induced lateral expression of krox20
same,fraction of embryos showing the pattern,[2]; one fraction per depicted pattern,9/13 and 4/13
"c1ccc2c(-c3cnn4cc(-c5ccc(N6CCNCC6)cc5)cnc34)ccnc2c1 [LDN-193189, reference compound]",effect on BMP2-induced BRE-luc activity,[3],potent antagonizing effect
same,effect on caALK2-induced SMAD1/5 phosphorylation,[4],strongly reduced
same,"developmental defects, single treatment","[1]; 5 µM, from 7 hpf onwards",did not induce detectable developmental defects
same,effect on caALK1-induced SMAD1/5 phosphorylation,[5],strongly reduced
same,effect on caALK6-induced SMAD1/5 phosphorylation,[6],strongly reduced
same,effect on caALK3-induced SMAD1/5 phosphorylation,[7],strongly reduced
Cc1cc(Nc2cc(N)ncn2)c(=O)n2c1C(=O)NC21CCCCC1 [eFT508],effect on SMAD1/5 phosphorylation,[8],no effect
same,effect on SMAD1/5 phosphorylation,[8]; listed as eFT 508,did not affect
same,effect on zebrafish embryo development,[1],no effect
same,effect on zebrafish embryo development,[1]; listed as eFT 508,did not induce developmental
